Assay results published in PubChem BioAssay AID1963826 (Molecular Pharmacology Branch, DTP, NCI, 2024).
Values joined by “and” are separate entries in the source; they are usually repeats but may differ in a detail not shown here. Identical values can stand only once.

Test system: 926638-142-R-J1-PDC complex spheroid viability
Assay: Anticancer human tumor 926638-142-R-J1-PDC patient-derived endometrial carcinoma cell line growth inhibition [POLQ]
Conditions: for viability, T/C: stronger effect = lower value
Protocol: Multicellular complex tumor spheroid response to Polymerase (POL) inhibitors (novobiocin, ART-558, RP6685) in combination with a variety of drugs and investigational agents in selected tumor cell lines
The POL inhibitors (novobiocin, ART-558, and RP6685) were evaluated both individually and in combination with standard of care and investigational anticancer small molecules within a complex spheroid model of solid tumors. . Complex spheroids include a stromal component modeled by human endothelial cells (HUVEC) and fibroblasts modeled by human mesenchymal stem cells (MSCs). The concentration ranges selected for each drug and investigational agent were based upon clinically achievable concentrations if the clinical Cmax of the agent was known.
Compounds. The drugs and investigational agents: novobiocin (NSC847541), ART-558 (NSC835418), RP-6685 (NSC848927), peposertib (NSC802822), ceralasertib (NSC780249), elimusertib (NSC800525), camonsertib (NSC841442), AZD-1390 (NSC803789), olaparib (NSC753686), talazoparib (NSC767125), rucaparib (NSC756644), sotorasib (NSC818433), MRTX-1133 (NSC836407), SN-38 (NSC673596), topotecan (NSC609699), epotoside (NSC141540), doxorubicin (NSC123127), gemcitabine (NSC613327), 5-fluorouracil (NSC19893), paclitaxel (NSC125973), vemurafenib (NSC761431), MSA-2 (NSC828583), SN-011 (NSC837082), adavosertib (NSC754352), prexasertib (NSC758257), carboplatin (NSC241240) and oxaliplatin (NSC266046), were obtained from the National Cancer Institute (NCI) Developmental Therapeutics Program Chemical Repository (21). The FDA-approved anticancer drug set is available from the Developmental Therapeutics Program at https://dtp.cancer.gov/organization/dscb/obtaining/. […] The stock solutions were prepared in dimethyl sulfoxide (DMSO, Sigma-Aldrich, St. Louis, MO, cat. D2650), except for the platinum compounds which were prepared in saline (Quality Biological, Gaithersburg, MD, cat. 114-055-101), at 800-fold the tested concentration and stored at -70 degrees C prior to their use. All drugs and investigational agents were tested over a range starting from a high concentration at or near the clinical Cmax and decreasing in half-log increments. If the clinical Cmax for an agent had not been determined, the highest concentration tested was 10 microM, except for SN-38, which was tested at a high concentration of 1 microM.
Cell Culture. All cells were maintained in an incubator at 37 degrees C and 5% CO2 with 95% humidity. The PDC lines were cultured according to standard operating procedures established by the NCI PDMR (https://pdmr.cancer.gov). Table 3 of the manuscript, lists the cell lines along with the number of the three cell types plated to form the mct-spheroids and media for tumor cell growth. After thawing, all PDC lines, except 997537-175-T-J1-PDC and 415267-285-R-J2-PDC, were cultured in Matrigel-coated flasks prepared with a working solution of 1X Ham's F-12 nutrient mix, without supplementation (Thermo Fisher Scientific, cat. 11765054), 100 U/mL penicillin-streptomycin (Thermo Fisher Scientific, cat. 15140122), and 2.5% Matrigel (Corning Inc., Corning, NY, cat. 354248) for the first three passages. The two PDC lines 997537-175-T-J1-PDC and 415267-285-R-J2-PDC were cultured on uncoated flasks. The 857933-349-R-J2-PDC line was cultured in 6C/Colon 1B media containing advanced DMEM/F-12 (Thermo Fisher Scientific, cat. 12634028), 10 mM HEPES (Thermo Fisher Scientific, cat. 15630080), 1X GlutaMAX supplement (Thermo Fisher Scientific, cat. 35050061), 0.1 mg/mL primocin (InvivoGen, San Diego, CA, cat. ant-pm-2), 10% defined fetal bovine serum, heat inactivated (HyClone Laboratories Inc., Logan, UT, cat. SH30070.03HI), 50% L-WRN conditioned media (ATCC, cat. CRL-3276), 1.25 mM N-Acetyl-L-cysteine (Sigma-Aldrich, cat. A9165), 10 mM nicotinamide (Sigma-Aldrich, cat. N0636), 1X B-27 supplement (Thermo Fisher Scientific, cat. 17504044), 1X N-2 supplement (Thermo Fisher Scientific, cat. […]
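Further: spheroids exposed to drugs for one week before readout.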
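Wherever viability, T/C is given: percent viability relative to DMSO vehicle control wells set as 100%.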

## CCc1cc2c(N3CCc4c(cc(Cn5ccnc5)cc4-c4cn(C)nc4C(F)(F)F)C3=O)ccnc2c(OC)n1
Compound 0.0316 µM
  viability, T/C: 60.9% and 84.9% and 79%
Compound 0.1 µM
  viability, T/C: 79.4% and 67.7% and 61%
Compound 0.316 µM
  viability, T/C: 48% and 59.9% and 64.8%
Compound 1 µM
  viability, T/C: 43.1% and 45% and 49.4%
Compound 3.16 µM
  viability, T/C: 25.4% and 39.3% and 37.3%
Compound 10 µM
  viability, T/C: 27.3% and 29.5% and 28.1%
Curve of compound
  IC50: 456 nM and 714 nM and 921 nM

## CC1COCCN1c1cc(C2(S(C)(=N)=O)CC2)nc(-c2ccnc3[nH]ccc23)n1 (stereo unspecified)
Compound 0.0316 µM
  viability, T/C: 103% and 96.2% and 125%
Compound 0.1 µM
  viability, T/C: 100% and 97.9% and 87.2%
Compound 0.316 µM
  viability, T/C: 94.2% and 87.3% and 90%
Compound 1 µM
  viability, T/C: 88.5% and 93.7% and 95%
Compound 3.16 µM
  viability, T/C: 64.7% and 71.3% and 62.5%
Compound 10 µM
  viability, T/C: 32.1% and 35.3% and 33.8%
Curve of compound
  IC50: 5380 nM and 6230 nM and 5460 nM

## CC[C@@]1(O)C(=O)OCc2c1cc1n(c2=O)Cc2cc3c(CN(C)C)c(O)ccc3nc2-1 + Nc1ccc(C#CCN(C(=O)Cc2ncc(C(F)(F)F)cc2C(F)(F)F)c2ccc(F)cc2)nn1
Curve of first compound, second compound 0.0316 µM
  IC50: > 100 nM
Curve of first compound, second compound 0.1 µM
  IC50: > 100 nM
Curve of first compound, second compound 0.316 µM
  IC50: > 100 nM
Curve of first compound, second compound 1 µM
  IC50: 97.6 nM
Curve of first compound, second compound 3.16 µM
  IC50: 95.5 nM
Curve of first compound, second compound 10 µM
  IC50: 73.1 nM
Second compound 0.0316 µM, first compound 0.000316 µM
  viability, T/C: 105%
Second compound 0.0316 µM, first compound 0.001 µM
  viability, T/C: 96.1%
Second compound 0.0316 µM, first compound 0.00316 µM
  viability, T/C: 84%
Second compound 0.0316 µM, first compound 0.01 µM
  viability, T/C: 73.4%
Second compound 0.0316 µM, first compound 0.0316 µM
  viability, T/C: 71.5%
Second compound 0.0316 µM, first compound 0.1 µM
  viability, T/C: 46.6%
Second compound 0.1 µM, first compound 0.000316 µM
  viability, T/C: 112%
Second compound 0.1 µM, first compound 0.001 µM
  viability, T/C: 90%
Second compound 0.1 µM, first compound 0.00316 µM
  viability, T/C: 81.6%
Second compound 0.1 µM, first compound 0.01 µM
  viability, T/C: 81.7%
Second compound 0.1 µM, first compound 0.0316 µM
  viability, T/C: 69.2%
Second compound 0.1 µM, first compound 0.1 µM
  viability, T/C: 48.3%
Second compound 0.316 µM, first compound 0.000316 µM
  viability, T/C: 96.8%
Second compound 0.316 µM, first compound 0.001 µM
  viability, T/C: 109%
Second compound 0.316 µM, first compound 0.00316 µM
  viability, T/C: 86.2%
Second compound 0.316 µM, first compound 0.01 µM
  viability, T/C: 66.6%
Second compound 0.316 µM, first compound 0.0316 µM
  viability, T/C: 64.1%
Second compound 0.316 µM, first compound 0.1 µM
  viability, T/C: 56.3%
Second compound 1 µM, first compound 0.000316 µM
  viability, T/C: 100%
Second compound 1 µM, first compound 0.001 µM
  viability, T/C: 101%
Second compound 1 µM, first compound 0.00316 µM
  viability, T/C: 89.6%
Second compound 1 µM, first compound 0.01 µM
  viability, T/C: 88.5%
Second compound 1 µM, first compound 0.0316 µM
  viability, T/C: 71.2%
Second compound 1 µM, first compound 0.1 µM
  viability, T/C: 49.4%
Second compound 3.16 µM, first compound 0.000316 µM
  viability, T/C: 92.4%
Second compound 3.16 µM, first compound 0.001 µM
  viability, T/C: 92%
Second compound 3.16 µM, first compound 0.00316 µM
  viability, T/C: 89.7%
Second compound 3.16 µM, first compound 0.01 µM
  viability, T/C: 78.6%
Second compound 3.16 µM, first compound 0.0316 µM
  viability, T/C: 74.6%
Second compound 3.16 µM, first compound 0.1 µM
  viability, T/C: 48.1%
Second compound 10 µM, first compound 0.000316 µM
  viability, T/C: 91.2%
Second compound 10 µM, first compound 0.001 µM
  viability, T/C: 88.5%
Second compound 10 µM, first compound 0.00316 µM
  viability, T/C: 80.2%
Second compound 10 µM, first compound 0.01 µM
  viability, T/C: 79.6%
Second compound 10 µM, first compound 0.0316 µM
  viability, T/C: 65%
Second compound 10 µM, first compound 0.1 µM
  viability, T/C: 43.9%
